# Reference: PMC10318822, “Phase 1 dose-escalation study to evaluate the safety, tolerability, pharmacokinetics, and anti-tumor activity of FCN-159 in adults with neurofibromatosis type 1-related unresectable plexiform neurofibromas” (BMC Medicine, 2023)
# System: adult patients with NF1-related PN
# Assay: Phase I dose-escalation: DLT, MTD, RP2D and drug-related TEAEs (CTCAE v5.0)
# Experimental: This is a multicenter, open-label, single-arm, non-randomized, phase I dose-escalation trial to evaluate the safety, tolerability, pharmacokinetic (PK), and anti-tumor activity of orally administered FCN-159 in adult patients with NF1 (NCT04954001). Phase I commenced with dose escalation in adult patients following a standard 3 + 3 design (Supplementary Table S1) to determine the maximum tolerated dose (MTD) of FCN-159 administered daily under fasting conditions (defined as no food or drink 1 h before and 2 h after each dose) in 28-day cycles. Study drug was dispensed at the study site and patient adherence was monitored by the records of drug dispensation and return. Patients were on treatment until PD, death, patient's voluntary withdrawal from study treatment, or study termination. The study was followed for 2 years after the last patient in. The starting dose was 4 mg, escalating in cohorts of at least three evaluable patients at 6 mg, 8 mg, and 12 mg until the MTD was determined. The starting dose in this study was determined based on available data from a phase 1a, first-in-human study of FCN-159 in patients with advanced NRAS ^mut+ melanoma at the time of study design. […] Dose expansion at a likely RP2D level enrolled approximately six patients. The highest dose level with a dose-limiting toxicity (DLT) incidence rate ≤ 33% (0/3 or 1/6 patients) was to be considered the MTD. If patients experienced grade ≥ 3 and/or unacceptable toxic events that were considered as at least possibly related to the study treatment, the study treatment was discontinued and supportive treatment was given in accordance with local treatment routines. If the toxicity returned to grade ≤ 2 within 28 days after the occurrence, and there was no progression on patients’ conditions or the investigator believed that patients could benefit from the study treatment, the original dose could be maintained or reduced after discussion with medical monitor. After completion of the dose escalation part of the study, PK, efficacy, safety, and tolerability data were analyzed to select the RP2D.
# Primary endpoints of the study were the DLT incidence rate, MTD, and RP2D. Secondary endpoints included other safety assessments, imaging tumor response (complete response [CR], PR, stable disease [SD], or progressive disease [PD]), and PK parameters of FCN-159. Adverse events were graded per CTCAE v5.0.
# All patients underwent a complete medical history, physical examination, Eastern Cooperative Oncology Group (ECOG) assessment, and laboratory analysis of test results. Drug-related TEAEs, serious adverse events (SAEs), TEAEs of grade ≥ 3 toxicity, and TEAEs leading to drug discontinuation were reviewed on an ongoing basis. Efficacy was assessed by radiologic scans and clinical assessment. Tumor assessments per Response Evaluation in Neurofibromatosis Schwannomatosis criteria were performed by investigators using MRI volumetric analysis every 4 cycles within the first 2 years (± 7 days) and every 6 cycles after 2 years (± 14 days) until PD, death, patient's voluntary withdrawal from study treatment, or study termination. MRI sequences of […], T1- and T2-weighted sequences were chosen and the software of Extended Brilliance Workspace, SIGNA Premier and uExceed were used for MRI volumetric analysis. The same software was used for all tumor assessments at baseline and subsequent assessed timepoints of the same patient. Pain was assessed by an 11-point numerical rating scale (NRS-11).
# The sample size for the dose-escalation study was estimated to be 24 based on the 3 + 3 method. Safety was analyzed in patients who received at least one dose of FCN-159 and had at least one safety assessment. DLT was assessed in the DLT analysis set, defined as patients who were enrolled in the dose-escalation study and met the DLT evaluation criteria.
compound,measurement,setting,value
Cn1c(=O)c(F)c(Nc2ccc(I)cc2F)c2c(=O)n(C3CC3)nc(-c3cccc(NS(=O)(=O)C4CC4)c3)c21 [FCN-159],Drug-related TEAE: Decreased appetite,6 mg (N = 4),0 n (%)
same,Drug-related TEAE: Dermatitis acneiform,6 mg (N = 4),0 n (%)
same,Drug-related TEAE: Diarrhea,6 mg (N = 4),0 n (%)
same,Drug-related TEAE: Drug eruption,6 mg (N = 4),2 (50.0) n (%)
same,Drug-related TEAE: Dyslipidemia,6 mg (N = 4),0 n (%)
same,Drug-related TEAE: Ejection fraction decreased,6 mg (N = 4),0 n (%)
same,Drug-related TEAE: Electrocardiogram QT prolonged,6 mg (N = 4),0 n (%)
same,Drug-related TEAE: Electrocardiogram abnormal,6 mg (N = 4),0 n (%)
same,Drug-related TEAE: Epistaxis,6 mg (N = 4),0 n (%)
same,Drug-related TEAE: Folliculitis,6 mg (N = 4),1 (25.0) n (%)
same,Drug-related TEAE: Functional gastrointestinal disorder,6 mg (N = 4),0 n (%)
same,Drug-related TEAE: Gamma-glutamyltransferase increased,6 mg (N = 4),1 (25.0) n (%)
same,Drug-related TEAE: Gingival pain,6 mg (N = 4),0 n (%)
same,Drug-related TEAE: Hyperlipidemia,6 mg (N = 4),0 n (%)
same,Drug-related TEAE: Hypertension,6 mg (N = 4),0 n (%)
same,Drug-related TEAE: Hypoalbuminemia,6 mg (N = 4),0 n (%)
same,Drug-related TEAE: Hypocalcemia,6 mg (N = 4),1 (25.0) n (%)
same,Drug-related TEAE: Hypophosphatemia,6 mg (N = 4),0 n (%)
same,Drug-related TEAE: Hypoproteinemia,6 mg (N = 4),0 n (%)
same,Drug-related TEAE: Immunoglobulins increased,6 mg (N = 4),1 (25.0) n (%)
same,Drug-related TEAE: Impetigo,6 mg (N = 4),0 n (%)
same,Drug-related TEAE: Left atrial enlargement,6 mg (N = 4),0 n (%)
same,Drug-related TEAE: Lipoprotein abnormal,6 mg (N = 4),0 n (%)
same,Drug-related TEAE: Malaise,6 mg (N = 4),0 n (%)
same,Drug-related TEAE: Menstrual disorder,6 mg (N = 4),0 n (%)
same,Drug-related TEAE: Mitral valve incompetence,6 mg (N = 4),1 (25.0) n (%)
same,Drug-related TEAE: Mouth ulceration,6 mg (N = 4),0 n (%)
same,Drug-related TEAE: Muscular weakness,6 mg (N = 4),0 n (%)
same,Drug-related TEAE: Oedema peripheral,6 mg (N = 4),1 (25.0) n (%)
same,Drug-related TEAE: Pain in extremity,6 mg (N = 4),0 n (%)
same,Drug-related TEAE: Paronychia,6 mg (N = 4),2 (50.0) n (%)
same,Drug-related TEAE: Prealbumin decreased,6 mg (N = 4),0 n (%)
same,Drug-related TEAE: Protein urine present,6 mg (N = 4),2 (50.0) n (%)
same,Drug-related TEAE: Pruritus,6 mg (N = 4),0 n (%)
same,Drug-related TEAE: QRS axis abnormal,6 mg (N = 4),0 n (%)
same,Drug-related TEAE: Rash,6 mg (N = 4),1 (25.0) n (%)
same,Drug-related TEAE: Sinus arrhythmia,6 mg (N = 4),0 n (%)
same,Drug-related TEAE: Sinus bradycardia,6 mg (N = 4),0 n (%)
same,Drug-related TEAE: Sinusitis,6 mg (N = 4),0 n (%)
same,Drug-related TEAE: Skin exfoliation,6 mg (N = 4),0 n (%)
same,Drug-related TEAE: Specific gravity urine increased,6 mg (N = 4),2 (50.0) n (%)
same,Drug-related TEAE: Stomatitis,6 mg (N = 4),2 (50.0) n (%)
same,Drug-related TEAE: Supraventricular extrasystoles,6 mg (N = 4),0 n (%)
same,Drug-related TEAE: Total bile acids increased,6 mg (N = 4),2 (50.0) n (%)
same,Drug-related TEAE: Tricuspid valve incompetence,6 mg (N = 4),1 (25.0) n (%)
same,Drug-related TEAE: Urinary occult blood positive,6 mg (N = 4),1 (25.0) n (%)
same,Drug-related TEAE: Urinary sediment present,6 mg (N = 4),0 n (%)
same,Drug-related TEAE: Urinary tract infection,6 mg (N = 4),1 (25.0) n (%)
same,Drug-related TEAE: Urine ketone body present,6 mg (N = 4),0 n (%)
same,Drug-related TEAE: Urobilinogen urine increased,6 mg (N = 4),2 (50.0) n (%)
same,Drug-related TEAE: Urticaria,6 mg (N = 4),0 n (%)
same,Drug-related TEAE: Vision blurred,6 mg (N = 4),0 n (%)
same,Drug-related TEAE: Visual acuity reduced,6 mg (N = 4),1 (25.0) n (%)
same,Drug-related TEAE: pH urine decreased,6 mg (N = 4),1 (25.0) n (%)
same,Drug-related TEAE: pH urine increased,6 mg (N = 4),0 n (%)
same,Subjects with any drug-related TEAE,6 mg (N = 4),4 (100) n (%)
same,Drug-related TEAE: Abdominal pain,8 mg (N = 8),1 (12.5) n (%)
same,Drug-related TEAE: Acne,8 mg (N = 8),0 n (%)
same,Drug-related TEAE: Acne pustular,8 mg (N = 8),1 (12.5) n (%)
same,Drug-related TEAE: Alanine aminotransferase increased,8 mg (N = 8),1 (12.5) n (%)
same,Drug-related TEAE: Albumin globulin ratio decreased,8 mg (N = 8),1 (12.5) n (%)
same,Drug-related TEAE: Alopecia,8 mg (N = 8),1 (12.5) n (%)
same,Drug-related TEAE: Amylase increased,8 mg (N = 8),0 n (%)
same,Drug-related TEAE: Anemia,8 mg (N = 8),1 (12.5) n (%)
same,Drug-related TEAE: Aortic dilatation,8 mg (N = 8),1 (12.5) n (%)
same,Drug-related TEAE: Aspartate aminotransferase increased,8 mg (N = 8),0 n (%)
same,Drug-related TEAE: Asthenia,8 mg (N = 8),0 n (%)
same,Drug-related TEAE: Beta globulin decreased,8 mg (N = 8),0 n (%)
same,Drug-related TEAE: Beta globulin increased,8 mg (N = 8),0 n (%)
same,Drug-related TEAE: Blood alkaline phosphatase increased,8 mg (N = 8),3 (37.5) n (%)
same,Drug-related TEAE: Blood bilirubin increased,8 mg (N = 8),2 (25.0) n (%)
same,Drug-related TEAE: Blood creatine phosphokinase increased,8 mg (N = 8),2 (25.0) n (%)
same,Drug-related TEAE: Blood fibrinogen increased,8 mg (N = 8),0 n (%)
same,Drug-related TEAE: Blood lactate dehydrogenase increased,8 mg (N = 8),1 (12.5) n (%)
same,Drug-related TEAE: Blood pressure increased,8 mg (N = 8),0 n (%)
same,Drug-related TEAE: Blood urea increased,8 mg (N = 8),1 (12.5) n (%)
same,Drug-related TEAE: Blood uric acid increased,8 mg (N = 8),0 n (%)
same,Drug-related TEAE: Breath odor,8 mg (N = 8),1 (12.5) n (%)
same,Drug-related TEAE: Capillary disorder,8 mg (N = 8),0 n (%)
same,Drug-related TEAE: Constipation,8 mg (N = 8),1 (12.5) n (%)
same,Drug-related TEAE: Decreased appetite,8 mg (N = 8),1 (12.5) n (%)
same,Drug-related TEAE: Dermatitis acneiform,8 mg (N = 8),1 (12.5) n (%)
same,Drug-related TEAE: Diarrhea,8 mg (N = 8),1 (12.5) n (%)
same,Drug-related TEAE: Drug eruption,8 mg (N = 8),2 (25.0) n (%)
same,Drug-related TEAE: Dyslipidemia,8 mg (N = 8),1 (12.5) n (%)
same,Drug-related TEAE: Ejection fraction decreased,8 mg (N = 8),1 (12.5) n (%)
same,Drug-related TEAE: Electrocardiogram QT prolonged,8 mg (N = 8),1 (12.5) n (%)
same,Drug-related TEAE: Electrocardiogram abnormal,8 mg (N = 8),0 n (%)
same,Drug-related TEAE: Epistaxis,8 mg (N = 8),1 (12.5) n (%)
same,Drug-related TEAE: Folliculitis,8 mg (N = 8),4 (50.0) n (%)
same,Drug-related TEAE: Functional gastrointestinal disorder,8 mg (N = 8),1 (12.5) n (%)
same,Drug-related TEAE: Gamma-glutamyltransferase increased,8 mg (N = 8),0 n (%)
same,Drug-related TEAE: Gingival pain,8 mg (N = 8),1 (12.5) n (%)
same,Drug-related TEAE: Hyperlipidemia,8 mg (N = 8),0 n (%)
same,Drug-related TEAE: Hypertension,8 mg (N = 8),1 (12.5) n (%)
same,Drug-related TEAE: Hypoalbuminemia,8 mg (N = 8),1 (12.5) n (%)
same,Drug-related TEAE: Hypocalcemia,8 mg (N = 8),1 (12.5) n (%)
same,Drug-related TEAE: Hypophosphatemia,8 mg (N = 8),1 (12.5) n (%)
same,Drug-related TEAE: Hypoproteinemia,8 mg (N = 8),1 (12.5) n (%)
same,Drug-related TEAE: Immunoglobulins increased,8 mg (N = 8),1 (12.5) n (%)
same,Drug-related TEAE: Impetigo,8 mg (N = 8),0 n (%)
same,Drug-related TEAE: Left atrial enlargement,8 mg (N = 8),1 (12.5) n (%)
same,Drug-related TEAE: Lipoprotein abnormal,8 mg (N = 8),0 n (%)
same,Drug-related TEAE: Malaise,8 mg (N = 8),0 n (%)
same,Drug-related TEAE: Menstrual disorder,8 mg (N = 8),0 n (%)
same,Drug-related TEAE: Mitral valve incompetence,8 mg (N = 8),2 (25.0) n (%)
